Experimental data reported in ChEMBL document CHEMBL4382243, “The synthesis of 4-arylamido-2-arylaminoprimidines as potent EGFR T790M/L858R inhibitors for NSCLC” (Bioorg Med Chem, 2018).
Calls of active or inactive are those of the source. The calls are words filed in the database; no cut-off is given here.

How the values were obtained:
cells = format: ADME, cell-based; details: Homo sapiens, NHBE, 72 h
Description: Antiproliferative activity against NHBE cells after 72 hrs by MTT assay

A549 = assay: cells; format: functional, cell-based; details: Homo sapiens, A549, 72 h
Description: Antiproliferative activity against human A549 cells after 72 hrs by MTT assay

A-431 = assay: cells; format: ADME, cell-based; details: Homo sapiens, A-431, 72 h;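 further: growth inhibition of A-431 cells expressing wild-type EGFR, read out by MTT assay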
Description: Antiproliferative activity against human A431 cells harboring wild-type EGFR after 72 hrs by MTT assay

[1] = biological target: Epidermal growth factor receptor (Homo sapiens, UniProt P00533, L858R/T790M); format: cell-based, Sf9
Chain of Epidermal growth factor receptor (Homo sapiens, UniProt P00533, L858R/T790M) (P00533 25-1210 T790M/L858R limits assumed): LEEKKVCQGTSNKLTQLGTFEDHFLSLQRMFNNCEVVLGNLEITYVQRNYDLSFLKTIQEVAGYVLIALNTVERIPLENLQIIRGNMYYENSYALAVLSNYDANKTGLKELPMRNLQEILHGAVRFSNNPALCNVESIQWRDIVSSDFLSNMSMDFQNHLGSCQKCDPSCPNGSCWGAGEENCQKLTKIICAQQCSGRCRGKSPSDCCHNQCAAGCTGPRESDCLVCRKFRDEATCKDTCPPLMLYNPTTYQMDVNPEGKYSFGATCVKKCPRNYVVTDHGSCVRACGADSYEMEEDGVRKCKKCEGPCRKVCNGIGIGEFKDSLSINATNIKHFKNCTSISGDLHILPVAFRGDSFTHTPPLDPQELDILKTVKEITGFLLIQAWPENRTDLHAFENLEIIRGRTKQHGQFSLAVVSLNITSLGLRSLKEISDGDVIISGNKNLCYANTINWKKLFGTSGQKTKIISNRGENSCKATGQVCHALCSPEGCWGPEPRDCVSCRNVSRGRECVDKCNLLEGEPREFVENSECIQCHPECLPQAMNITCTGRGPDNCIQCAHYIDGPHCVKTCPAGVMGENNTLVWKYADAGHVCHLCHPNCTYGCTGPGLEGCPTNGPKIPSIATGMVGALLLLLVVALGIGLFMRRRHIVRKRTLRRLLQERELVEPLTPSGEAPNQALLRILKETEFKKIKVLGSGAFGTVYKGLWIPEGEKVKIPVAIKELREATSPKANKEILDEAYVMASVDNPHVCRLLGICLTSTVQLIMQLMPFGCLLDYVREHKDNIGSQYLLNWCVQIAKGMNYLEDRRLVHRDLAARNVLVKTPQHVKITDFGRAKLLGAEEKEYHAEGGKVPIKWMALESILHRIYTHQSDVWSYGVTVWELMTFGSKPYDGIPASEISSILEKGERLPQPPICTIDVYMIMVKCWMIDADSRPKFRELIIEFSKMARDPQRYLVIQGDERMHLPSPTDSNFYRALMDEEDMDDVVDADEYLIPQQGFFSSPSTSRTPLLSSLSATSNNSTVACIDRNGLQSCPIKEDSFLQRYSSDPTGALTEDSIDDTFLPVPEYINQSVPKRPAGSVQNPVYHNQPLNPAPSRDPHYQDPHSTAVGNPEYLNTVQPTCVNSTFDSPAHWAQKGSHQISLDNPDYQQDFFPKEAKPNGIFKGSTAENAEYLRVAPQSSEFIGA

ASPC1 = assay: cells; format: functional, cell-based; details: Homo sapiens, ASPC1, 72 h;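 further: growth inhibition of the cells quantified with an MTT readout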
Description: Antiproliferative activity against human Aspc-1 cells after 72 hrs by MTT assay

NCI-H23 = assay: Antiproliferative activity against human NCI-H23 cells after 72 hrs by MTT assay; format: functional, cell-based; details: NCI-H23, 72 h
NCI-H1975 [2] = assay: Antiproliferative activity against human NCI-H1975 cells harboring EGFR T790M/L858R double mutant after 72 hrs by MTT assay; format: functional, cell-based; details: NCI-H1975, 72 h
[3] = biological target: Epidermal growth factor receptor (Homo sapiens, UniProt P00533); format: ADME, cell-based, Sf9
Chain of Epidermal growth factor receptor (Homo sapiens, UniProt P00533) (P00533 whole entry): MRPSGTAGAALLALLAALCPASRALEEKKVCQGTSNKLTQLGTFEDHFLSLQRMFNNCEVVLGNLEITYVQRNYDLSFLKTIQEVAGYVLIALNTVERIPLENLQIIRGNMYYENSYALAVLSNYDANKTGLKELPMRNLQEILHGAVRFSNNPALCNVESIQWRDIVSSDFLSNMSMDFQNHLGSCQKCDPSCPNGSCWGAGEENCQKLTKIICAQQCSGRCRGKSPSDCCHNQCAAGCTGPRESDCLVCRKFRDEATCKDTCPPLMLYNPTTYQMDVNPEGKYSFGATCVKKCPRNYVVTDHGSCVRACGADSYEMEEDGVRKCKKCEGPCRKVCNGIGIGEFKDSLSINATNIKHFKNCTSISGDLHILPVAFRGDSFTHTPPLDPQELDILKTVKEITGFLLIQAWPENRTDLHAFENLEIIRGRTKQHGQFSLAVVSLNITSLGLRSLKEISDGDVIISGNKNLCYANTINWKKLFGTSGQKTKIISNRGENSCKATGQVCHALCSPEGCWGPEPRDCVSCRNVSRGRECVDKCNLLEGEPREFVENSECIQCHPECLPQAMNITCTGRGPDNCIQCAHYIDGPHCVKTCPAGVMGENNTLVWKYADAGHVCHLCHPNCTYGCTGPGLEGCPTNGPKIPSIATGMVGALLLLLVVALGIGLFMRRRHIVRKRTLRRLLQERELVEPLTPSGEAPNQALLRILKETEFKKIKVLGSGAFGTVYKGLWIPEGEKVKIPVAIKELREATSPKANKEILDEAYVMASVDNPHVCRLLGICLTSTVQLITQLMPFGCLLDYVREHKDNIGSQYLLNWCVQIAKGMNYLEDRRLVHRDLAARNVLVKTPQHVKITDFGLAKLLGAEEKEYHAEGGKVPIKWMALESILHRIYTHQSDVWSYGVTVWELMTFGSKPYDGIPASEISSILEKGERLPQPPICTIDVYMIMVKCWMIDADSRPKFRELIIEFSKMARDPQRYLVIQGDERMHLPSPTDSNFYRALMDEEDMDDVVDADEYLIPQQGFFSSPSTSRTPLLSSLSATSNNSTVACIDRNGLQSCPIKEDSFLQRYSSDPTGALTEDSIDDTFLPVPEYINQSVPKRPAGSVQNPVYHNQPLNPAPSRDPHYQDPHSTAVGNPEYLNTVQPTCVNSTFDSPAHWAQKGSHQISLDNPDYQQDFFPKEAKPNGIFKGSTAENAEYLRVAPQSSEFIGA
Description: Inhibition of wild-type human N-terminal GST-tagged EGFR (695 to end residues) expressed in baculovirus infected Sf9 insect cells using Poly (4:1 Glu, Tyr) as substrate after 60 mins in presence of ATP by ADP-Glo assay

NCI-H1975 [4] = assay: Antiproliferative activity against human NCI-H1975 cells harboring EGFR T790M/L858R double mutant assessed as cell viability at 10 uM after 72 hrs by MTT assay (reference value: 98.3%); format: functional; details: for viability at 10 µM: Homo sapiens, NCI-H1975, 72 h, read-out: Activity
NCI-H1975 [5] = assay: Antiproliferative activity against human NCI-H1975 cells harboring EGFR T790M/L858R double mutant assessed as cell viability at 1 uM after 72 hrs by MTT assay (reference value: 98.3%); format: functional; details: for viability at 1 µM: Homo sapiens, NCI-H1975, 72 h, read-out: Activity
NCI-H1975 [6] = assay: Antimigratory activity against human NCI-H1975 cells at 5 to 10 uM up to 48 hrs by wound healing assay; format: functional, cell-based
NCI-H1975 [7] = assay: Antiproliferative activity against human NCI-H1975 cells harboring EGFR T790M/L858R double mutant assessed as cell viability at 1 uM after 48 hrs by MTT assay (reference value: 98.3%); format: functional; details: for viability at 1 µM: Homo sapiens, NCI-H1975, 48 h, read-out: Activity
NCI-H1975 [8] = assay: Antiproliferative activity against human NCI-H1975 cells harboring EGFR T790M/L858R double mutant assessed as cell viability at 0.1 uM after 24 hrs by MTT assay (reference value: 98.3%); format: functional; details: for viability at 0.1 µM: Homo sapiens, NCI-H1975, 24 h, read-out: Activity
NCI-H1975 [9] = assay: Induction of apoptosis in human NCI-H1975 cells harboring EGFR T790M/L858R double mutant assessed as membrane blebbing at 1 to 20 uM after 72 hrs by DAPI staining based fluorescent microscopic analysis; format: functional, cell-based
NCI-H1975 [10] = assay: Antiproliferative activity against human NCI-H1975 cells harboring EGFR T790M/L858R double mutant assessed as cell viability at 10 uM after 48 hrs by MTT assay (reference value: 98.3%); format: functional; details: for viability at 10 µM: Homo sapiens, NCI-H1975, 48 h, read-out: Activity
NCI-H1975 [11] = assay: Antiproliferative activity against human NCI-H1975 cells harboring EGFR T790M/L858R double mutant assessed as cell viability at 1 uM after 24 hrs by MTT assay (reference value: 98.3%); format: functional; details: for viability at 1 µM: Homo sapiens, NCI-H1975, 24 h, read-out: Activity
NCI-H1975 [12] = assay: Antiproliferative activity against human NCI-H1975 cells harboring EGFR T790M/L858R double mutant assessed as cell viability at 10 uM after 24 hrs by MTT assay (reference value: 98.3%); format: functional; details: for viability at 10 µM: Homo sapiens, NCI-H1975, 24 h, read-out: Activity
NCI-H1975 [13] = assay: Antiproliferative activity against human NCI-H1975 cells harboring EGFR T790M/L858R double mutant assessed as cell viability at 0.1 uM after 48 hrs by MTT assay (reference value: 98.3%); format: functional; details: for viability at 0.1 µM: Homo sapiens, NCI-H1975, 48 h, read-out: Activity
NCI-H1975 [14] = assay: Antiproliferative activity against human NCI-H1975 cells harboring EGFR T790M/L858R double mutant assessed as cell viability at 0.1 uM after 72 hrs by MTT assay (reference value: 98.3%); format: functional; details: for viability at 0.1 µM: Homo sapiens, NCI-H1975, 72 h, read-out: Activity
NCI-H1975 [15] = assay: Induction of apoptosis in human NCI-H1975 cells harboring EGFR T790M/L858R double mutant assessed as apoptotic body formation at 1 to 20 uM after 72 hrs by DAPI staining based fluorescent microscopic analysis; format: functional, cell-based
NCI-H1975 [16] = assay: Induction of apoptosis in human NCI-H1975 cells harboring EGFR T790M/L858R double mutant assessed as nuclear condensation at 1 to 20 uM after 72 hrs by DAPI staining based fluorescent microscopic analysis; format: functional, cell-based
NCI-H1975 [17] = assay: Antiproliferative activity against human NCI-H1975 cells harboring EGFR T790M/L858R double mutant at 1 to 20 uM after 72 hrs by acridine orange/ethidium bromide staining based fluorescent microscopic analysis; format: functional, cell-based

SMILES | IC50 (cells) [µM] | IC50 (A549) [µM] | IC50 (A-431) [µM] | IC50 [1] [µM] | IC50 (ASPC1) [µM] | IC50 (NCI-H23) [µM] | IC50 (NCI-H1975 [2]) [µM] | IC50 [3] [µM] | also measured
C=CC(=O)Nc1cc(Nc2nccc(NC(=O)c3cccc(OC)c3)n2)c(OC)cc1N1CCN(C)CC1 | 2.5 | 6.45 | 1.59 | 0.055 | > 10 | 15.9 | 4.23 | 0.147 | 
C=CC(=O)Nc1cc(Nc2nccc(NC(=O)c3cccc(OC)c3)n2)c(OC)cc1N(C)CCN(C)C | 12.3 | 3 | 4.16 | 0.059 | 3.4 | 11.8 | 1.16 | 0.153 | 
C=CC(=O)Nc1cc(Nc2nccc(NC(=O)c3ccc(C(F)(F)F)cc3)n2)c(OC)cc1N1CCN(C)CC1 | 19.4 | 7.89 | 9.2 | 0.0279 | > 10 | 9.2 | 3.42 | 0.152 | 
C=CC(=O)Nc1cc(Nc2nccc(NC(=O)c3cccc4ccccc34)n2)c(OC)cc1N1CCN(C)CC1 | 18.9 | 6.77 | 7.75 | 0.0333 | 6.6 | 10.6 | 1.09 | 0.134 | 
C=CC(=O)Nc1cc(Nc2nccc(NC(=O)c3ccc(OC)c(OC)c3)n2)c(OC)cc1N1CCN(C)CC1 | 27 | 6.82 | 11.7 | 0.0126 | > 10 | > 16 | 1.66 | 0.157 | viability at 10 µM (NCI-H1975 [4]): 5.8%; viability at 1 µM (NCI-H1975 [5]): 52.8%; Activity (NCI-H1975 [6]): Active; viability at 1 µM (NCI-H1975 [7]): 74.8%; viability at 0.1 µM (NCI-H1975 [8]): 93.8%; Activity (NCI-H1975 [9]): Active; viability at 10 µM (NCI-H1975 [10]): 11.8%; viability at 1 µM (NCI-H1975 [11]): 85.4%; viability at 10 µM (NCI-H1975 [12]): 41.4%; viability at 0.1 µM (NCI-H1975 [13]): 91.6%; viability at 0.1 µM (NCI-H1975 [14]): 90.2%; Activity (NCI-H1975 [15]): Active; Activity (NCI-H1975 [16]): Active; Activity (NCI-H1975 [17]): Active
C=CC(=O)Nc1cc(Nc2nccc(NC(=O)c3ccc(OC)c(OC)c3)n2)c(OC)cc1N(C)C |  |  | 18.2 | 0.0402 |  |  | 2.15 | 0.149 | 
C=CC(=O)Nc1cc(Nc2nccc(NC(=O)c3ccc(OC)c(OC)c3)n2)c(OC)cc1N(C)CCN(C)C | 12.7 | 3.95 | 6.55 | 0.123 | 3.32 | 15.5 | 2.65 | 0.187 | 
C=CC(=O)Nc1cc(Nc2nccc(NC(=O)c3ccc(OC)c(OC)c3)n2)c(OC)cc1N1CCC(C(N)=O)CC1 | > 40 | 4.47 | 9.45 | 0.0547 | > 10 | > 16 | 1.46 | 0.128 | 
C=CC(=O)Nc1cc(Nc2nccc(NC(=O)c3ccc(C(F)(F)F)cc3)n2)c(OC)cc1N(C)CCN(C)C | 12.9 | 9.88 | 7.24 | 0.0465 | 8.03 | 7.98 | 3.26 | 0.109 | 
COc1cc2ncnc(Nc3ccc(F)c(Cl)c3)c2cc1OCCCN1CCOCC1 [GEFITINIB] |  |  |  |  |  |  |  |  | viability at 10 µM (NCI-H1975 [4]): 18.7%; viability at 1 µM (NCI-H1975 [5]): 63.2%; viability at 1 µM (NCI-H1975 [7]): 84.3%; viability at 0.1 µM (NCI-H1975 [8]): 97.6%; viability at 10 µM (NCI-H1975 [10]): 32.7%; viability at 1 µM (NCI-H1975 [11]): 90.6%; viability at 10 µM (NCI-H1975 [12]): 48.7%; viability at 0.1 µM (NCI-H1975 [13]): 93.5%; viability at 0.1 µM (NCI-H1975 [14]): 89.9%
C=CC(=O)Nc1cc(Nc2nccc(NC(=O)c3ccccc3)n2)c(OC)cc1N1CCN(C)CC1 | 23.9 | 5.97 | 3.94 | 0.121 | > 10 | > 16 | 1.42 | 0.156 | 
C=CC(=O)Nc1cc(Nc2nccc(NC(=O)c3ccccc3)n2)c(OC)cc1N1CCC(C(N)=O)CC1 |  |  | 15.5 | 0.000587 |  |  | > 20 | 0.181 | 
C=CC(=O)Nc1cc(Nc2nccc(NC(=O)c3cccc(OC)c3)n2)c(OC)cc1N1CCC(C(N)=O)CC1 |  |  | 13.1 | 0.0326 |  |  | 11.5 | 0.0505 | 
C=CC(=O)Nc1cc(Nc2nccc(NC(=O)c3ccccc3)n2)c(OC)cc1N(C)CCN(C)C | 15.1 | 1.74 | 1.06 | 0.143 | 3.58 | > 16 | 1.34 | 0.318 | 
C=CC(=O)Nc1cc(Nc2nccc(NC(=O)c3ccc(C(F)(F)F)cc3)n2)c(OC)cc1N1CCC(C(N)=O)CC1 |  |  | > 20 | 0.0653 |  |  | 15.7 | 0.127 | 
C=CC(=O)Nc1cc(Nc2nccc(NC(=O)c3ccccc3)n2)c(OC)cc1N(C)C |  |  | > 20 |  |  |  | > 20 |  | 
C=CC(=O)Nc1cc(Nc2nccc(-c3cn(C)c4ccccc34)n2)c(OC)cc1N(C)CCN(C)C [OSIMERTINIB] | > 40 | 3.24 | […] |  | 3.98 |  | […] |  | Activity (NCI-H1975 [4]): 1.42%; Activity (NCI-H1975 [5]): 33.5%; Activity (NCI-H1975 [7]): 59%; Activity (NCI-H1975 [8]): 87.1%; Activity (NCI-H1975 [10]): 1.71%; Activity (NCI-H1975 [11]): 78.6%; Activity (NCI-H1975 [12]): 3.68%; Activity (NCI-H1975 [13]): 83.6%; Activity (NCI-H1975 [14]): 77.2%
